Measurements: patent publication US20070054266A1, “Chemical sensor system” (NATIONAL INSTITUTE of ADVANCED INDUSTRIAL SCIENCE and …, priority 2002, published 2007)

How the values were obtained:
[1] = tested on: olfactory cells; assay: Responsiveness of 2,740 isolated olfactory cells to odor molecules (fura-2 calcium fluorescence); assay type: cell-based, mouse; conditions: for number of olfactory cells responding, with higher sensitivity than others and to the same extent, to both pulegone and (−)menthone / number of olfactory cells responding, with the highest sensitivity and to the same extent, to both R(−)carvone and S(+)carvone / number of olfactory cells sensitively and selectively responding: of 2,740 olfactory cells investigated
From the text: (§1) It is reported that, in mice, the olfactory receptor is expressed is olfactory cells and detects and identifies odor molecules (Cell 96: 713-723 (1999) and the like). It is reported that there are four zones indicated by No. 1 to 4 in order from the dorsum to the ventral olfactory epithelium wherein olfactory cells are distributed and each olfactory receptor is limitedly expressed in any one of the four zones (Science 286 (5440): 706-711 (1999) and the like). As it is estimated by gene analysis estimates that there are about 1,000 types of olfactory receptors, the responsiveness to specific odor molecules of the olfactory cells sampled in statistically significant number from the four zones is equivalent. Therefore, in the present invention, the responsiveness of 2,740 olfactory cells, about 2.7 times as many as 1,000 specific types of cells, was investigated. It cannot be declared that the statistical significance is maintained for all zones, as the number of types of olfactory receptor included in each zone is not clear. […] As a result, 4 olfactory cells sensitively and selectively responding to R(−)carvone of spearmint odor of a typical olfactory source, 18 olfactory cells sensitively and selectively responding to S(+)carvone of caraway odor of another typical olfactory source, 3 olfactory cells responding, with higher sensitivity than others and to the same extent, to both pulegone and (−)menthone commonly having mint odor of another typical olfactory source, and 3 olfactory cells responding, with the highest sensitivity and to the same extent, to both R(−)carvone and S(+)carvone commonly having sweet odor of another typical olfactory source were found. Respectively, 2, 2, 1 and 1 type(s) of genes identified by RT-PCR determined from a single cell among such olfactory cells were found and described in the present invention.
The olfactory epithelium was quickly excised from a mouse euthanized by decapitation under anesthesia and divided into small pieces. These pieces were trypsinized to cleave intercellular junctions, and a sample of viable multiple mouse olfactory cells isolated from cells adhered to a cover slip by softly putting the treated pieces onto the cover slip taking care not to rupture them. Calcium-sensitive fluorescent dye fura-2 was intracellularly loaded on the sample, a solution of each odor molecule was administered, and the transient increase in intracellular calcium concentration triggered by the olfactory cells responding was detected by measuring and analysing the change in fura-2 fluorescence intensity within the cell using a microscope (Nikon), high-sensitive SIT video camera and image analysis device Argus-50 (Hamamatsu Photonics for both of the latter two), allowing the analysis individual cells response to specific odor molecules. Olfactory cell with a confirmed response were individually sampled with a micropipette containing 4 μl of cell lysis mix (1×MMLV buffer (GIBCO BRL), 0.5% NP-40, 290 U/ml RNA guard (Pharmacia), 300 U/ml Prime RNase inhibitor (Eppendorf), 10 μM each dNTP, 200 ng/ml pd(T)25-30) under microscopy and moved into a tube for PCR. After the tube was incubated at 65° C. for 1 minute, 0.5 μl of RT mixed solution containing 50 U of MMLV reverse transcriptase (GIBCO BRL) and 0.5 U of AMV reverse transcriptase (GIBCO BRL) was added to each tube, followed by reverse-transcription at 37° C. for 30 minutes and treatment at 65° C. for 10 minutes prior to the termination of reaction. To form polyA tails, 5 μl of 2×TdT buffer (GIBCO BRL), 1.5 mM DATP, and 3 U/μl Terminal deoxynucleotidyl transferase (GIBCO BRL) were added, followed by incubation at 37° C. for 15 minutes and treatment at 65° C. for 10 minutes prior to the termination of reaction. […]

[2] = tested on: olfactory receptor car-b85; assay: Odor response of olfactory cell expressing olfactory receptor car-b85 (fura-2 calcium fluorescence); assay type: cell-based, mouse; conditions: car-b85, odor quality Mint; for Response at 1 μM: responders at 1 μM with rank order; for Response at 10 μM: responders at 10 μM
From the text: It is reported that, in mice, the olfactory receptor is expressed is olfactory cells and detects and identifies odor molecules (Cell 96: 713-723 (1999) and the like). It is reported that there are four zones indicated by No. 1 to 4 in order from the dorsum to the ventral olfactory epithelium wherein olfactory cells are distributed and each olfactory receptor is limitedly expressed in any one of the four zones (Science 286 (5440): 706-711 (1999) and the like). As it is estimated by gene analysis estimates that there are about 1,000 types of olfactory receptors, the responsiveness to specific odor molecules of the olfactory cells sampled in statistically significant number from the four zones is equivalent. Therefore, in the present invention, the responsiveness of 2,740 olfactory cells, about 2.7 times as many as 1,000 specific types of cells, was investigated. It cannot be declared that the statistical significance is maintained for all zones, as the number of types of olfactory receptor included in each zone is not clear. […] Respectively, 2, 2, 1 and 1 type(s) of genes identified by RT-PCR determined from a single cell among such olfactory cells were found and described in the present invention. The olfactory epithelium was quickly excised from a mouse euthanized by decapitation under anesthesia and divided into small pieces. These pieces were trypsinized to cleave intercellular junctions, and a sample of viable multiple mouse olfactory cells isolated from cells adhered to a cover slip by softly putting the treated pieces onto the cover slip taking care not to rupture them. Calcium-sensitive fluorescent dye fura-2 was intracellularly loaded on the sample, a solution of each odor molecule was administered, and the transient increase in intracellular calcium concentration triggered by the olfactory cells responding was detected by measuring and analysing the change in fura-2 fluorescence intensity within the cell using a microscope (Nikon), high-sensitive SIT video camera and image analysis device Argus-50 (Hamamatsu Photonics for both of the latter two), allowing the analysis individual cells response to specific odor molecules. […] The olfactory receptors with high sensitivity to specific odor qualities are shown as follows.

[3] = tested on: olfactory receptor car-n272; assay: Odor response of olfactory cell expressing olfactory receptor car-n272 (fura-2 calcium fluorescence); assay type: cell-based, mouse; conditions: car-n272, odor quality Spearmint; for Response at 10 μM: odor molecules listed are those giving a response at 10 μM
From the text: (§2) It is reported that, in mice, the olfactory receptor is expressed is olfactory cells and detects and identifies odor molecules (Cell 96: 713-723 (1999) and the like). It is reported that there are four zones indicated by No. 1 to 4 in order from the dorsum to the ventral olfactory epithelium wherein olfactory cells are distributed and each olfactory receptor is limitedly expressed in any one of the four zones (Science 286 (5440): 706-711 (1999) and the like). As it is estimated by gene analysis estimates that there are about 1,000 types of olfactory receptors, the responsiveness to specific odor molecules of the olfactory cells sampled in statistically significant number from the four zones is equivalent. Therefore, in the present invention, the responsiveness of 2,740 olfactory cells, about 2.7 times as many as 1,000 specific types of cells, was investigated. It cannot be declared that the statistical significance is maintained for all zones, as the number of types of olfactory receptor included in each zone is not clear. […] Respectively, 2, 2, 1 and 1 type(s) of genes identified by RT-PCR determined from a single cell among such olfactory cells were found and described in the present invention.
(§3) The olfactory epithelium was quickly excised from a mouse euthanized by decapitation under anesthesia and divided into small pieces. […] Calcium-sensitive fluorescent dye fura-2 was intracellularly loaded on the sample, a solution of each odor molecule was administered, and the transient increase in intracellular calcium concentration triggered by the olfactory cells responding was detected by measuring and analysing the change in fura-2 fluorescence intensity within the cell using a microscope (Nikon), high-sensitive SIT video camera and image analysis device Argus-50 (Hamamatsu Photonics for both of the latter two), allowing the analysis individual cells response to specific odor molecules. […]

[4] = tested on: olfactory receptor car-c5; assay: Odor response of olfactory cell expressing olfactory receptor car-c5 (fura-2 calcium fluorescence); assay type: cell-based, mouse; conditions: car-c5, odor quality Spearmint; for Response at 10 μM: responders at 10 μM
From the text: as §2, §3

[5] = tested on: olfactory receptor car-n266; assay: Odor response of olfactory cell expressing olfactory receptor car-n266 (fura-2 calcium fluorescence); assay type: cell-based, mouse; conditions: car-n266, Sweet odor; for Response at 1 μM: responders at 1 μM; for Response at 10 μM: responders at 10 μM
From the text: as §1, §3

[6] = tested on: olfactory receptor C257; assay: Response characteristics of olfactory receptor C257 expressed in cultured cell CHO; assay type: cell-based; conditions: sensitivity one order of magnitude lower than in olfactory receptor cell (FIG. 16)
From the text: Next, in this Example, response characteristics of olfactory receptor C257 were studied. A) is the case wherein it is expressed in olfactory receptor cell, and B) is the case wherein it is expressed in cell established and cultured cell CHO. […] However, response to sCa was not apparent (FIG. 16). […] Regarding discrimination, characteristics of the olfactory receptor can be considered to be expressed, independent of the cell type. However, regarding sensitivity and response starting time, they are change with regards to all odor molecules depending on the cell type. Therefore, it is necessary to evaluate the stimulation quality, paying attention to this point.

[7] = tested on: olfactory receptor car-b161; assay: Odor response of olfactory cell expressing olfactory receptor car-b161 (fura-2 calcium fluorescence); assay type: cell-based, mouse; conditions: car-b161, odor quality Caraway; responders at 10 μM
From the text: (§4) It is reported that, in mice, the olfactory receptor is expressed is olfactory cells and detects and identifies odor molecules (Cell 96: 713-723 (1999) and the like). It is reported that there are four zones indicated by No. 1 to 4 in order from the dorsum to the ventral olfactory epithelium wherein olfactory cells are distributed and each olfactory receptor is limitedly expressed in any one of the four zones (Science 286 (5440): 706-711 (1999) and the like). […] Respectively, 2, 2, 1 and 1 type(s) of genes identified by RT-PCR determined from a single cell among such olfactory cells were found and described in the present invention.
as §3

[8] = tested on: olfactory receptor car-b153; assay: Odor response of olfactory cell expressing olfactory receptor car-b153 (fura-2 calcium fluorescence); assay type: cell-based, mouse; conditions: car-b153, odor quality Caraway; responders at 10 μM
From the text: as §4, §3

[9] = of about 70-100 kinds of receptors
[10] = 1 μM, cells selective for the respective carvone (FIG. 8)

| SMILES | Response at 1 μM [2] | Response at 10 μM [2] | number of olfactory cells responding, with higher sensitivity than others and to the same extent, to both pulegone and (−)menthone [1] [olfactory cells] | Response at 10 μM [3] | Response at 10 μM [4] | Response at 1 μM [5] | Response at 10 μM [5] | number of selective cells responding at 1 μM [1, 10] | number of olfactory cells responding, with the highest sensitivity and to the same extent, to both R(−)carvone and S(+)carvone [1] [olfactory cells] | number of olfactory cells sensitively and selectively responding [1] [olfactory cells] | fraction of the carvone-identifying olfactory receptors responding with relatively high sensitivity [1, 9] | response of olfactory receptor C257 when expressed in CHO [6] | other results |
| --- | --- | --- | --- | --- | --- | --- | --- | --- | --- | --- | --- | --- | --- |
| C=C(C)C1CC=C(C)C(=O)C1 (stereo not drawn) [carvone] | – | – | – | – | – | – | – | – | – | – | – | – | number of cells responding equally to both carvones at 1 μM ([1]; 1 μM): three; kinds of olfactory receptors functioning to identify carvone ([1]; corresponding to about 9.6% of about 1,000 kinds): 70-100 kinds; olfactory cells responding to carvone, share of the total ([1]; of 2,740 olfactory cells): 9.6%; number of olfactory cells responding to carvone ([1]; of 2,740 olfactory cells, carvone = both S(+)carvone and R(−)carvone): 263; fraction of the carvone-identifying olfactory receptors responding to both carvones equally with relatively high sensitivity [1, 9]: about ⅖ |
| CC(C)=C1CC[C@@H](C)CC1=O [pu, (R)-p-menth-4(8)-en-3-one] | pu, mn > sCa, rCa | pu | 3 | – | – | – | – | – | – | – | – | – | – |
| C=C(C)[C@@H]1CC=C(C)C(=O)C1 [rCa, R(−)-5-isopropenyl-2-methyl-2-cyclohexenon] | pu, mn > sCa, rCa | rCa | – | rCa | rCa | rCa | rCa | four | 3 | 4 | about ⅕ | high sensitivity could be confirmed | Response at 1 μM ([3]; odor molecules listed are those giving a response at 1 μM): rCa; Response at 1 μM ([4]; responders at 1 μM): rCa |
| CC(C)[C@@H]1CC[C@@H](C)CC1=O [mn, (2S,5R)-2-isopropyl-5-methylcyclohexanone] | pu, mn > sCa, rCa | mn | 3 | – | – | – | – | – | – | – | – | – | – |
| C=C(C)C1CCC(C)CC1O (stereo not drawn) [ip, 2-isopropenyl-5-methylcyclohexanol] | – | ip | – | – | – | – | – | – | – | – | – | – | – |
| C=C(C)[C@H]1CC=C(C)C(=O)C1 [sCa, S(+)-5-isopropenyl-2-methyl-2-cyclohexenon] | pu, mn > sCa, rCa | sCa | – | sCa | sCa | sCa | sCa | two | 3 | 18 | about ⅕ | not apparent | Response at 10 μM [7]: sCa; Response at 10 μM [8]: sCa; number of selective cells responding at 10 μM ([1]; 10 μM, cells selective for the respective carvone (FIG. 8)): seventeen |
